What was measured:
[1] = tested on: IL-6 mRNA expression; experiment: Endothelial inflammatory activation after endotoxin, IL-6 mRNA (Example 5); type: cell-based, Human; conditions: HUVEC; 10 μM for 30 min
Procedure: (§1) Human Umbilical Cord Endothelial Cells (HUVEC, Lonza CC-2519) were maintained on 1% gelatin-coated culture flasks in RPMI1640 medium containing 20% fetal bovine serum, 2 mM Glutamine (Sigma-Aldrich), 1% Penicillin-Streptomycin solution (Sigma-Aldrich) and 50 μg/ml Bovine Pituitary Extract (Invitrogen). HUVEC were passaged by trypsinization when the cultures reach a confluency of 70%. For all experiments, HUVEC were seeded at 0.6·10^5 cells/cm^2 and allowed to adhere for 24 hours.
(§2) HUVEC cells were lysed in triZOL reagens (Invitrogen) and total RNA isolated according to manufacturers' instruction. 1 μg total RNA per sample was reverse transcribed using the FirstAid Reverse Transcription Kit (ThermoFisher). Copy-DNA equivalents of 5 ng total RNA were amplified on a ViiA7 Real-time PCR system (ThermoFisher, Waltham, Mass.) using iTaq Universal SYBR Green Supermix (Bio-Rad, Hercules, Calif.) and primers specific for tumor necrosis factor alpha (TNFα; sense 5′-[…]-3′, antisense 5′-[…]-3′), interleukin 1 beta (IL-1β; sense 5′-[…]-3′, antisense 5′-[…]-3′), interleukin-6 (IL-6; sense 5′-[…]-3′, antisense 5′-[…]-3′) and beta actin (ACTB; sense 5′-[…]-3′, antisense 5′-[…]-3′) as loading control. Amplification was performed for 40 cycles of 95° C. for 30 s, 60° C. for 1 min. Relative mRNA expression was calculated according to the δδCt-method.

[2] = tested on: expression of IL-6, TNF-α, IL-1β and ICAM in the kidney; experiment: CLP sepsis model, kidney RNA expression by qRT-PCR; type: in vivo; conditions: CLP mice; SUL-138 5 mg/kg s.c.; 24 hours
Procedure: To induce sepsis, the standard cecal ligation and puncture (CLP) model was used. Animals were anesthetized by subcutaneous injection of xylazine/ketamine (100/10 mg/kg), followed by administration of buprenorphine (0.1 mg/kg) as analgesic. After confirmation of anesthesia by lack of response to paw pinch and eye reflex, the abdomen was shaved, cleaned, and de-germed using a povidone-iodine solution before a 1-cm midline incision was made. The cecum was ligated with a 6-0 suture at half the distance between distal pole and the base of the cecum and punctured once with a 21-Gauge needle (‘through-and-through’ from mesenteric toward anti-mesenteric direction) which is an accepted model for ‘mid-grade’ sepsis. A small amount of stool (2-3 mm) was then extruded to ensure wound patency. The cecum was repositioned, thereby taking care not to spill fecal material on the wound edges, followed by closure of the abdomen by running sutures to the abdominal musculature and short interrupted sutures to the skin. Next, 1 ml of saline (warmed, 0.9% NaCl s.c.) was administered to compensate for the expected relative volume depletion due to the onset of sepsis.
Mice in the SUL-138 treated groups were injection with SUL-138 (dissolved in saline, 5 mg/kg, s.c.) at 2 hours before and 8 hours after surgery, while mice in the other groups were injected with an equal volume of saline at these time-points.
In order to assess the expression of proinflammatory cytokines and adhesion molecules in the kidney, including IL-6, TNF-α, IL-1β and ICAM, RNA was isolated from approximately 30 mg kidney tissue using Nucleospin RNA (Machery-Nagel, Duren, Germany), quantified using nanodrop spectrophotometer ND-1000 and converted into copy DNA (cDNA), using 0.5 μg RNA in each sample. For RNA isolation from cells, the same kit was used with slight adaptations: TRIzol and chloroform as lysis buffer, instead of the lysis buffer from the kit. Olignucleotide primers were designed using NCBI Primer Blast and Clone Manager (see appendix) and validated by assessing the efficiency, melting temperature and curve using qRT-PCR and size on gel electrophoresis of the naive and enzymatically digested products. qRT-PCR amplification was performed using the following thermal profile: 95° C. for 2 min, followed by 40 cycli of 95° C. for 15 sec, 58° C. for 30 sec and 72° C. 30 sec. All reactions were carried out in triplicate and a standard curve for each primer was used.

[3] = tested on: IL-1β mRNA expression; experiment: Endothelial inflammatory activation after endotoxin, IL-1β mRNA (Example 5); type: cell-based, Human; conditions: HUVEC; 10 μM for 30 min
Procedure: as §1, §2

[4] = tested on: HUVEC; experiment: LPS-induced mitochondrial oxidative stress in HUVEC (MitoSOX); type: cell-based, Human; conditions: SUL-138 added one hour prior to LPS
Procedure: (§3) Human Umbilical Vein Endothelial cells (HUVEC) were obtained from the RuG/UMCG Endothelial Cell Facility. Primary isolates of umbilical cords were mixed and subsequently cultured on HUVEC culture medium, consisted of RPMI 1640 (Lonza, art.nr. BE12-115F) supplemented with 20% heat-inactivated fetal calf serum (ThermoFisher Scientific, art.nr. 10082147), 2 mM 1-glutamine (Life Technologies art.nr. 25030), 5 U/ml heparin (Leo Pharmaceutical Products), 1% Penicillin/Streptomycin (Sigma-Aldrich art.nr. P4333), and 50 μg/ml EC growth factor supplement from (Sigma-Aldrich, art.nr. E2759).
Primary HUVECs were cultured in 75-cm2 tissue culture flasks (Corning, art.nr. 430720U) at 37° C. under 5% CO2/95% air. HUVECs were used for experiments up to passage 8. Experiments were performed in 6-well (Corning art.nr. 3506) or 96-well culture plates (Corning, art.nr. 3596), at 80% confluency. Cells were stimulated with LPS E. coli 0111:B4 (Sigma-Aldrich, art.nr. L2630) in different concentrations. Cells were detached with trypsin (Sigma-Aldrich, art.nr. 25300054). All compounds were dissolved in Hanks Balanced Salt Solution (Lonza, art.nr. 10-527F). […]
Cells and mitochondria were incubated and measured according to manufacturer's protocol in the Synergy H4 micro plate reader (Bio-Tek) at an excitation/emission rate of 548/574 nm.

[5] = tested on: HUVEC; experiment: HUVEC cell survival after 48 hours LPS (Cyquant); type: cell-based, Human; conditions: 48 hours with LPS, SUL-138 pre-incubation
Procedure: as §3
Primary HUVECs were cultured in 75-cm2 tissue culture flasks (Corning, art.nr. 430720U) at 37° C. under 5% CO2/95% air. HUVECs were used for experiments up to passage 8. Experiments were performed in 6-well (Corning art.nr. 3506) or 96-well culture plates (Corning, art.nr. 3596), at 80% confluency. Cells were stimulated with LPS E. coli 0111:B4 (Sigma-Aldrich, art.nr. L2630) in different concentrations. Cells were detached with trypsin (Sigma-Aldrich, art.nr. 25300054). All compounds were dissolved in Hanks Balanced Salt Solution (Lonza, art.nr. 10-527F).
HUVECs were pre-incubated with SUL-138 in an amount of 10 microgram/ml, which was added one hour prior to LPS-stimulation. Such pre-incubation is the standard in in vitro models.

Compound: Cc1c(C)c2c(c(C)c1O)CC[C@@](C)(C(=O)N1CCN(CCO)CC1)O2 [SUL-138, (S)-(6-hydroxy-2,5,7,8-tetramethylchroman-2-yl)(4-(2-hydroxyethyl)piperazin-1-yl)methanone]
- LPS-induced mRNA expression of IL-6 [1]: precluded the LPS-induced increase in IL-1β and IL-6
- ICAM expression in the kidney (RNA) [2]: lower than in the untreated CLP animals but the difference was not statistically significant
- IL-1β expression in the kidney (RNA) [2]: lower than in the untreated CLP animals but the difference was not statistically significant
- IL-6 expression in the kidney (RNA) [2]: fully prevented the rise in IL-6 expression
- TNF-α expression in the kidney (RNA) [2]: lower than in the untreated CLP animals but the difference was not statistically significant
- LPS-induced mRNA expression of IL-1β [3]: precluded the LPS-induced increase in IL-1β and IL-6
- LPS induced mitochondrial oxidative stress (MitoSOX) [4]: reduces LPS induced mitochondrial oxidative stress
- cell survival (Cyquant) [5]: restores cell survival after 48 hours

Source: patent US20230202997A1, “CHROMANOL, QUINONE OR HYDROQUINONE COMPOUNDS FOR TREATMENT OF SEPSIS” (Sulfateq B.V., priority 2020, published 2023)
